# Source: ChEMBL document CHEMBL1201862, “PubChem BioAssay data set” (2004)
# Activity calls are given as the source filed them.
# Legend:
# [1] = cells; assay type: functional, cell-based
# [2] = target: T1, Nuclear receptor subfamily 0 group B member 1 (Homo sapiens, UniProt P51843); assay type: functional, cell-based;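 further: HEK293T cells transfected with SF-1 and DAX-1 plus StAR promoter luciferase reporter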
# T1 sequence (P51843 whole entry): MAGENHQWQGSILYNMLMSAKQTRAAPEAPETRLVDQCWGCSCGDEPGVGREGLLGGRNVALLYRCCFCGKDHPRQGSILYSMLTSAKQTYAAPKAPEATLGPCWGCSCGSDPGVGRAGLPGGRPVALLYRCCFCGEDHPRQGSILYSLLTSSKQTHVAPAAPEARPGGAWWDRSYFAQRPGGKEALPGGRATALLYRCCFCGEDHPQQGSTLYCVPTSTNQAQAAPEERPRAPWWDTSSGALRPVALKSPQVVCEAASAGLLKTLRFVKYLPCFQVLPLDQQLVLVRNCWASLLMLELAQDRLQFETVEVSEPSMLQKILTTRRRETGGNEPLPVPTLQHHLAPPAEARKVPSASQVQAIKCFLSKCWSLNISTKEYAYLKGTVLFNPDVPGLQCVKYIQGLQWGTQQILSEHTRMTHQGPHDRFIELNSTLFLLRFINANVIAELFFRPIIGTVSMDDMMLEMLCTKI
# [3] = target: Beta Lactamase (Pseudomonas aeruginosa, UniProt Q932Y6);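 further: confirmatory high-throughput screen measuring VIM-2 metallo-beta-lactamase inhibition by epi-absorbance in dose response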
# Sequence of Beta Lactamase (Q932Y6 whole entry): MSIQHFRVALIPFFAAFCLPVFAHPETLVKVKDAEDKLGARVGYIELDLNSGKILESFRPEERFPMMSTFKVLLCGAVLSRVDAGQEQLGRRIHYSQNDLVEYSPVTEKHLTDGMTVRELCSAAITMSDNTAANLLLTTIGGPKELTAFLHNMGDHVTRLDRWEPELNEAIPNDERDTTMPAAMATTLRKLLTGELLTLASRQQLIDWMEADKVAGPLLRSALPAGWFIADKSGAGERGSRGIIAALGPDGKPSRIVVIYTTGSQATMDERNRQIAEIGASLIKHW
# [4] = target: Beta-lactamase (Pseudomonas aeruginosa, UniProt Q79MP6);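 further: biochemical dose-response test of metallo-beta-lactamase enzyme inhibition, read out by epi-absorbance; purified recombinant IMP-1 metallo-beta-lactamase with nitrocefin as substrate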
# Sequence of Beta-lactamase (Pseudomonas aeruginosa, UniProt Q79MP6) (Q79MP6 whole entry): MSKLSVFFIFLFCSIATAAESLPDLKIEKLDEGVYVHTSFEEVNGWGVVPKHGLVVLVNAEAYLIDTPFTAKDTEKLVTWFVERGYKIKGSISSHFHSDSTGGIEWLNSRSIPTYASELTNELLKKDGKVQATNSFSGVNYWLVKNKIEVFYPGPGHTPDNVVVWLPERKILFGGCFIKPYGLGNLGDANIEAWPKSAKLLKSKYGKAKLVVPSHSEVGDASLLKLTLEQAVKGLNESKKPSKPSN
# [5] = target: Beta-lactamase (Salmonella choleraesuis (strain SC-B67), UniProt Q5J463)
# Sequence of Beta-lactamase (Salmonella choleraesuis (strain SC-B67), UniProt Q5J463) (Q5J463 whole entry): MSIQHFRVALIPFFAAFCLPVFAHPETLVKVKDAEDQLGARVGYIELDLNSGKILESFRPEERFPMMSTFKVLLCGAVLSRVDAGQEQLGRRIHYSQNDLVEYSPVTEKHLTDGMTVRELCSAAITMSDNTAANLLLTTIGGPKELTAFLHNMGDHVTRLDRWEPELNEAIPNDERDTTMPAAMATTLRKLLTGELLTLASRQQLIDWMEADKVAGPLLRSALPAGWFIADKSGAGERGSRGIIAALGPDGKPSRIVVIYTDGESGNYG
# [6] = target: 26S proteasome non-ATPase regulatory subunit 14 (Homo sapiens, UniProt O00487); test: inhibition of proteasome subunit RPN11 – biochemical, fluorescence polarization, uHTS hits, confirmation (AID 602368); assay type: functional
# Sequence of 26S proteasome non-ATPase regulatory subunit 14 (O00487 whole entry): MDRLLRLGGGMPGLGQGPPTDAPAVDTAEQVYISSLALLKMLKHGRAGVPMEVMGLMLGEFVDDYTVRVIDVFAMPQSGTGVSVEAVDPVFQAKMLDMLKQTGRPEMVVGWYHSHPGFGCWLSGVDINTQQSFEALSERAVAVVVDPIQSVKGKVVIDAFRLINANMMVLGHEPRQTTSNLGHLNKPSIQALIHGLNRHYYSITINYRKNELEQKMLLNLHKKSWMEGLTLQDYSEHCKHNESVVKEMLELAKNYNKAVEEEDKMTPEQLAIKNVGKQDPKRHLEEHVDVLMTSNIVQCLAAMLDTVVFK
# [7] = target: 72 kDa type IV collagenase (Homo sapiens, UniProt P08253); test: Dose Response validation of uHTS RPN11 inhibitor hits using a MMP-2 Fluorescence assay.; assay type: functional
# Sequence of 72 kDa type IV collagenase (P08253 whole entry): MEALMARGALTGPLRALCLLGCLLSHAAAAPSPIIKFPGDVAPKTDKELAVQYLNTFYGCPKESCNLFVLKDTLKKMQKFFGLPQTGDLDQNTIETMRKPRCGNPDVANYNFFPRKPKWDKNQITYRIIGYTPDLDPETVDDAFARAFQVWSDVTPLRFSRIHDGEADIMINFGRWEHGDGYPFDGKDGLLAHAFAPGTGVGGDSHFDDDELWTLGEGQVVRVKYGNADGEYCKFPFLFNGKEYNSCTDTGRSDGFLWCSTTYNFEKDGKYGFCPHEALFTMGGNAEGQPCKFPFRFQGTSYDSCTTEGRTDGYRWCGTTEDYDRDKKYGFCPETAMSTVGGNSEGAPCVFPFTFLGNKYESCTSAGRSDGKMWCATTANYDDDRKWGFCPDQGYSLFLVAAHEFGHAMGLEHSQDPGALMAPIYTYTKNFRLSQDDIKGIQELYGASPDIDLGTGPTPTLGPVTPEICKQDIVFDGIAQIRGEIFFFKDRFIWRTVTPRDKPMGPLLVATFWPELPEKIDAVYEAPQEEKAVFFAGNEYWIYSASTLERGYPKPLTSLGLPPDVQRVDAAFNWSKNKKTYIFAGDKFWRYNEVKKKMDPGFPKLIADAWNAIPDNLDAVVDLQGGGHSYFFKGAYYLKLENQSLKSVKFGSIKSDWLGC
# [8] = target: Prothrombin (Bos taurus, UniProt P00735); test: thrombin inhibition, dose response, biochemical, fluorescence polarization, uHTS hits (AID 602369); assay type: functional
# [9] = target: T2, Low molecular weight phosphotyrosine protein phosphatase (Homo sapiens, UniProt P24666); assay type: functional; settings: read-out: IC50_Mean
# T2 sequence (P24666 whole entry): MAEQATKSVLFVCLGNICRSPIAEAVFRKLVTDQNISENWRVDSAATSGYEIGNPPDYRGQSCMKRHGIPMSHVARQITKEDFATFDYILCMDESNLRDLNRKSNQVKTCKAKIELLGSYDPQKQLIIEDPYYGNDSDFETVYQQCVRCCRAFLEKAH
# [10] = target: T2, Low molecular weight phosphotyrosine protein phosphatase; assay type: functional; settings: read-out: IC50_Mean; remark: listed apart in the source
# [11] = target: Hepatocyte nuclear factor 4-alpha (Homo sapiens, UniProt P41235); assay type: functional, cell-based;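 further: biochemical luminescence-based dose-response counterscreen measuring inhibition of HNF4 dimerization, run alongside a screen for blockers of ABHD5–perilipin-5 interaction; split luciferase complementation of HNF4 fusion proteins in cell lysate measuring dimerization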
# Sequence of Hepatocyte nuclear factor 4-alpha (P41235 whole entry, the tested form may be a part): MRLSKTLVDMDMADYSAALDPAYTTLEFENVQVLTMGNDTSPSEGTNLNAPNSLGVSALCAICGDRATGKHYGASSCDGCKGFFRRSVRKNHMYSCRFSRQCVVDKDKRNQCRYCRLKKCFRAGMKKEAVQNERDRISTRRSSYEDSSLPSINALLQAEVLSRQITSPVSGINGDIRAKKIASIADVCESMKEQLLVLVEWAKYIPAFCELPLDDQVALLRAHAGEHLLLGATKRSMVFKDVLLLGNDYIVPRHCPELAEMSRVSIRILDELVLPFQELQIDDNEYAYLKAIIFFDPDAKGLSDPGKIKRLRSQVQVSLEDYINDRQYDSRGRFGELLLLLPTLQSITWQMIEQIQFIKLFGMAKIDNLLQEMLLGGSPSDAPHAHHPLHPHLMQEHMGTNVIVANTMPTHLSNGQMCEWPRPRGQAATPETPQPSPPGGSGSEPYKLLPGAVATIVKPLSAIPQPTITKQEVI
# [12] = target: T3, ATP-dependent translocase ABCB1 (Homo sapiens, UniProt P08183); test: ABCG2 efflux pump inhibitor potency, dose response, Ig-MXP3 cells, JC-1, flow cytometry, set 2 (AID 504566); assay type: functional; settings: read-out: EC50_MICROM_;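 further: flow cytometry median green fluorescence of retained JC-1 dye; potency of efflux pump inhibition measured as rising substrate retention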
# T3 sequence (P08183 whole entry): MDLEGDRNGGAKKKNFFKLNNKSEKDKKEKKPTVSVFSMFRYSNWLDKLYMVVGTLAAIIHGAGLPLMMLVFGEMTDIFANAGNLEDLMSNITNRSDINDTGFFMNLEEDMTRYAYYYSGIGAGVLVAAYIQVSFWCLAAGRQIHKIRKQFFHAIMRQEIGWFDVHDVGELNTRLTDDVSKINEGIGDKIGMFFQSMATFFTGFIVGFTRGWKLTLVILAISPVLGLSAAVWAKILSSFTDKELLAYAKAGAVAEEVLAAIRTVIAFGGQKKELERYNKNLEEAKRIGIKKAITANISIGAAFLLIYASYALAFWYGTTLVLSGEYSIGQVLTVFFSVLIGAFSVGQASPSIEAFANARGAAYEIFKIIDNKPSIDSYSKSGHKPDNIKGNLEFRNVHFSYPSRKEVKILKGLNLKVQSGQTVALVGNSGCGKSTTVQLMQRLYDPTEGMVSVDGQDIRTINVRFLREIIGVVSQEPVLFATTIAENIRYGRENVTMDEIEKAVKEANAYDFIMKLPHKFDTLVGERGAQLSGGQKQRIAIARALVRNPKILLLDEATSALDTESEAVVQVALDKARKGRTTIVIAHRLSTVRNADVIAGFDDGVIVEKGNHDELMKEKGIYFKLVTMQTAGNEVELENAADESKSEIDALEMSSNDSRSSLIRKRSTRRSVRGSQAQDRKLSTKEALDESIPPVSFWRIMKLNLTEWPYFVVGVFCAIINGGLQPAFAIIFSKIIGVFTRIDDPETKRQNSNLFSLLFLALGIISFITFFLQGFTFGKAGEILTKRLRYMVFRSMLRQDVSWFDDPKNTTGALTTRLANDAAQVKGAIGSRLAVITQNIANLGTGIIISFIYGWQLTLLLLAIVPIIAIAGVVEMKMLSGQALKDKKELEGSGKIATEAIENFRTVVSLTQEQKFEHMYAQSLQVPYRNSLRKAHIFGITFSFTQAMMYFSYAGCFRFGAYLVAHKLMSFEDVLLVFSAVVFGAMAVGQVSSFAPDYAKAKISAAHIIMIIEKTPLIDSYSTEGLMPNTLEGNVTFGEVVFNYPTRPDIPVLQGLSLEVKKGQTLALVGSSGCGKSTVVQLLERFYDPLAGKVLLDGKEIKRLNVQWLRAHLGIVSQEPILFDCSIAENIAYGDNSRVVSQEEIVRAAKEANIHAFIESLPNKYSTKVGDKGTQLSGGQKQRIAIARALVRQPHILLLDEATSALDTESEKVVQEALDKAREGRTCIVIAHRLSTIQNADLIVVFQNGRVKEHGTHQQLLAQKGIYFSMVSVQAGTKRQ
# [13] = target: T3, ATP-dependent translocase ABCB1; test: ABCB1 efflux inhibitor potency, dose response, Jurkat-DNR cells, JC-1, flow cytometry, set 2 (AID 504569); assay type: functional; settings: read-out: EC50_MICROM_;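 further: potency of pump inhibitors that raise cellular JC-1 green fluorescence up to the nicardipine level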
# [14] = HEK293 cell viability, dose response, counter-screen for EBV LMP1 inhibitor project, dry powder, set 2 (AID 624374); assay type: functional
# [15] = LMP1-driven NF-kB reporter inhibition, dose response, cell-based, luciferase reporter, luminescence, dry powder, set 2 (AID 624376); assay type: functional
# [16] = cells; assay type: functional
# [17] = ARNT/TACC3 interaction disruptors, potency, confirmation, biochemical, AlphaScreen, cherry-picked samples (AID 651703); assay type: functional, Homo sapiens;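 further: His-tagged ARNT PAS-B domain paired with GST-TACC3 E629A dimer coactivator fragment; potency of inhibitors that break up the complex and lower AlphaScreen signal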
compound,measurement,setting,value
CC(=O)c1sc(Nc2ccc(Oc3ccccc3)cc2)nc1C,IC50,[1],> 67.6 µM (inactive)
same,IC50,[2],> 67.6 µM (inactive)
COc1ccc(C(=O)Nc2ccc(/C(C)=N/NC(=O)c3ccncc3)cc2)cc1,IC50,[3],> 59.6 µM (inactive)
same,IC50,[4],10.9 µM (inactive)
same,IC50,[5],> 59.6 µM (inactive)
same,IC50,[6],43 µM (active)
same,IC50,[7],> 100 µM (inactive)
same,IC50,[8],> 100 µM (inactive)
same,IC50,[9],> 80 µM (inactive)
same,IC50,[10],8.92 µM (active)
CC(C)(C)NC(=O)C(c1cc2ccccc2o1)n1c(=O)c(-c2ccco2)nc2ccccc21 (configuration not stated),IC50,[11],1.86 µM (active)
O=C(c1ccco1)N1CCN(c2c3c(nc4cc(-c5cccc(F)c5)nn24)CCC3)CC1,EC50,[12],7.76 µM (active)
same,EC50,[13],6.31 µM (active)
C[C@H](CO)N1C[C@H](C)[C@@H](CN(C)S(=O)(=O)c2cccc(F)c2)Oc2ncc(C#CC3CCCCC3)cc2C1=O,AbsAC35,[14],324.37 µM
same,AbsAC35,[15],44.29 µM
Cc1nnc(N/N=C/c2ccc(-c3ccc(Br)cc3)o2)n1N,IC50,[16],9.58 µM (active)
same,AC50,[17],127 µM (active)
